The numbers were not newly measured in paper PMC4844938 (Molecules and Cells, 2016), which cites them from elsewhere.

In general, Kd refers to a measure of binding affinity in units of concentration.

The data set relates to RANKL. The settings on record: ref Ta et al., 2010.

As for “1-YC WNSDCECCYRR-13 (bicyclic or more) [L3-3]”, under “previous work”, the “affinity for RANKL relative to OP3-4” value is given as “higher affinity for RANKL as compared to OP3-4”. Also, the Kd (read-out: Kd for RANKL, reported in previous work) is 17.3 µM.
